In assay [1] the target is T1, human CB2 receptor (Homo sapiens, UniProt P34972).
T1 construct: expressed in transfected cells; host or cells: human embryonic kidney (HEK) cells, Semliki Forest Virus system, membrane preparations
The experiment in a line: CB2 receptor affinity, [3H]-CP-55,940 displacement, HEK cell membranes. The note with it: 10 μM compound, radioligand [3H]-CP-55,940. It is filed as binding. The protocol:
The affinity of the compounds of the invention for cannabinoid CB2 receptors was determined using membrane preparations of human embryonic kidney (HEK) cells in which the human CB2 receptor is transiently transfected using a Semliki Forest Virus system in conjunction with [^3H]-CP-55,940 as radioligand. After incubation of freshly prepared cell membrane preparation with the [^3H]-ligand, with or without addition of compounds of the invention, separation of bound and free ligand was performed by filtration over glass fiber filters. Radioactivity on the filter was measured by scintillation counting.
(§1) The ability of the compounds to displace the radioligand [^3H]-CP-55,940 was measured at a concentration of 10 μM and values provided as [% inhibition @ 10 μM] both for the CB 1 and CB2 receptor assay, The lower % inhibition is, the lower the likelihood of side effects based on CB1 or CB2 receptor inhibition is.

Assay [2] addresses T2, human CB1 receptor (Homo sapiens, UniProt P21554).
T2 construct: expressed in transfected cells; host or cells: human embryonic kidney (HEK) cells, Semliki Forest Virus system, membrane preparations
The experiment in a line: CB1 receptor affinity, [3H]-CP-55,940 displacement, HEK cell membranes. The note with it: 10 μM compound, radioligand [3H]-CP-55,940; read-out: CB1 receptor affinity [% inhibition @ 10 μM]. The assay is classed as binding. The protocol:
The affinity of the compounds of the invention for cannabinoid receptors was determined using membrane preparations of human embryonic kidney (HEK) cells in which the human CB1 receptor is transiently transfected using a Semliki Forest Virus system in conjunction with [3H]-CP-55,940 as radioligand. After incubation of freshly prepared cell membrane preparation with the [^3H]-ligand, with or without addition of compounds of the invention, separation of bound and free ligand was performed by filtration over glass fiber filters. Radioactivity on the filter was measured by scintillation counting.
as §1

We go through eight molecules from patent publication US9090599B2, “Heteroarylmethyl amides” (Hoffman-La Roche Inc., priority 2010, dated 2015).

T1 sequence (P34972 whole entry): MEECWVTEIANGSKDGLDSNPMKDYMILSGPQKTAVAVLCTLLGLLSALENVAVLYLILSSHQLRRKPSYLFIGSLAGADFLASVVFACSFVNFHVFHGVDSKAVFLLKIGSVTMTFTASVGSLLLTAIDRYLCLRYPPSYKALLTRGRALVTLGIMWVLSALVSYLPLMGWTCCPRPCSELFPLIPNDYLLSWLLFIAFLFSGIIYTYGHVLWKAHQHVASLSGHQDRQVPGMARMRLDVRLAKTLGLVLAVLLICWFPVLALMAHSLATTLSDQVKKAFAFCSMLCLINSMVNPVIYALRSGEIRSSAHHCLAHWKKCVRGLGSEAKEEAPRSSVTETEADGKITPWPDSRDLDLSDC
T2 sequence (P21554 whole entry): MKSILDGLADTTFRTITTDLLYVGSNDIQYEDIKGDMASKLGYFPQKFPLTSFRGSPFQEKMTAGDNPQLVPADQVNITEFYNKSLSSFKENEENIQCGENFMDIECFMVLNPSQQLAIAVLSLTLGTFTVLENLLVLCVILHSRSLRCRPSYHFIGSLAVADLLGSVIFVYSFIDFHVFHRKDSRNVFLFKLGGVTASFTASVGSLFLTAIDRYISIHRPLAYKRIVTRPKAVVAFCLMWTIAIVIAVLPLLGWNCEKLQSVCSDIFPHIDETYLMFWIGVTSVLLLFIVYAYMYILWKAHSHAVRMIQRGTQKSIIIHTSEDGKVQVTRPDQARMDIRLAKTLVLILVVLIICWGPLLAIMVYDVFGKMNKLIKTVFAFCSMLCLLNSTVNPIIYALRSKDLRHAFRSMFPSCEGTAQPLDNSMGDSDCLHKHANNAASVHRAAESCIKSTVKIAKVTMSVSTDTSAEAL

By inhibition is commonly meant the percentage by which the read-out fell short of the control. As for `O=C(NCc1nc(C(F)(F)F)no1)c1cnc(OC[C@H]2CCOC2)c(-c2ccc(Cl)cc2)c1` (stereo in doubt) [Example 104], the values for the inhibition at 10 µM in assay [1] and in assay [2] were 9% and 39%, respectively.
For the molecule `CC(C)(C)c1nc(CNC(=O)c2ccc(OCC3CC3)c(-c3ccc(Cl)cc3)n2)cs1` [Example 63, 6-(4-chloro-phenyl)-5-cyclopropylmethoxy-pyridine-2-carboxylic acid (2-tert-butyl-thiazol-4-ylmethyl)-amide], the inhibition at 10 µM in assay [1] amounted to 38%; in assay [2], 36%.
For `O=C(NCc1noc(C2CC2)n1)c1ncc(OCC2CC2)c(-c2ccc(Cl)cc2)n1` [Example 13, 4-(4-chloro-phenyl)-5-cyclopropylmethoxy-pyrimidine-2-carboxylic acid (5-cyclopropyl-[1,2,4]oxadiazol-3-ylmethyl)-amide], in that order: 46% and 35%.
Regarding `CC(C)c1nc(CNC(=O)c2ccc(OCC3CC3)c(-c3ccc(Cl)cc3)n2)cs1` [Example 52, 6-(4-chloro-phenyl)-5-cyclopropylmethoxy-pyridine-2-carboxylic acid (2-isopropyl-thiazol-4-ylmethyl)-amide], the inhibition at 10 µM in assay [1] was found to be 43%; in assay [2], 38%.
Taken in the same sequence, the figures for `O=C(NCc1nc(C(F)(F)F)no1)c1cnc(O[C@@H]2CCOC2)c(-c2ccc(Cl)cc2)c1` [Example 103, (R)-5-(4-chlorophenyl)-6-(tetrahydrofuran-3-yloxy)-N-((3-(trifluoromethyl)-1,2,4-oxadiazol-5-yl)methyl)nicotinamide] were 24% and 47%.
On to `O=C(NCc1nc(C(F)(F)F)no1)c1cc(-c2ccc(Cl)cc2)c(OCC2CC2)nn1` [Example 20, 5-(4-chloro-phenyl)-6-cyclopropylmethoxy-pyridazine-3-carboxylic acid (3-trifluoromethyl-[1,2,4]oxadiazol-5-ylmethyl)-amide], for which the inhibition at 10 µM in assay [1] came out at 34%; in assay [2], 33%.
Consider `CC(C)c1cc(CNC(=O)c2ccc(OCC3CC3)c(-c3ccc(Cl)cc3)n2)no1` [Example 55, 6-(4-chloro-phenyl)-5-cyclopropylmethoxy-pyridine-2-carboxylic acid (5-isopropyl-isoxazol-3-ylmethyl)-amide], for which the inhibition at 10 µM in assay [1] amounted to 33%; in assay [2], 44%.
As to `C[C@H](Oc1ncc(C(=O)NCc2nc(C(F)(F)F)no2)nc1-c1ccc(Cl)cc1)C(F)(F)F` [Example 36, (S)-6-(4-chlorophenyl)-N-((3-(trifluoromethyl)-1,2,4-oxadiazol-5-yl)methyl)-5-(1,1,1-trifluoropropan-2-yloxy)pyrazine-2-carboxamide], the figures for the inhibition at 10 µM in assay [1] and in assay [2] were 14% and 36%, respectively.
